How the values were obtained:
[1] = Solubility of Trehalostatin; assay type: physicochemical; settings: in water
[2] = biological target: Bacterial saccharifying amylase (Bacillus subtilis, UniProt P00691); test: Enzyme inhibition spectrum: bacterial saccharifying amylase; assay type: biochemical; set-up: key: ++: ID50 ≤ 1.0 μg; +: ID50 ≥ 1.0 μg; -: no inhibition; settings: enzyme 4 μg; pH 5.0, 0.5% starch; measuring method C
Procedure: (§1) Each enzyme (200 μl) is incubated with Trehalostatin (0.01-50 μg) in 0.05 M acetate (pH 5-6) or phosphate (pH 6-7) buffer solution at 37° C. for 5 minutes. Then 20 μl of the resulting solution is collected and added with a substrate to a final concentration shown in the Table, making the total volume of the solution 100 μl. The mixture is incubated at 37° C. for 10 minutes and then incubated in a boiling water bath for 3 minutes to terminate the reaction.
(§2) Determination of activity was made by measuring the increase of the product in the reaction system according to the following methods A-C.
(§3) The quantity of Trehalostatin which can effect 50% inhibition of enzyme activity under the above-described conditions was indicated as ID50.
(§4) (C) The increase of an amount of reducing sugar produced was measured according to the method shown in J. A. Thoma et al., The Enzyme, 3rd. ed., Ch. 5, pp. 115-189 (1971).

[3] = test system: Gluco amylase (Rhizopus niveus); test: Enzyme inhibition spectrum: Gluco amylase (Rhizopus niveus); assay type: biochemical; set-up: key: ++: ID50 ≤ 1.0 μg; +: ID50 ≥ 1.0 μg; -: no inhibition; settings: enzyme 2 μg; pH 5.5, 0.5% starch; measuring method A
Procedure: as §1, §2, §3
(§5) (A) The glucose produced was determined by the new blood sugar test devised by Boehringer-Mannheim Ltd.

[4] = test system: Carboxymethyl-cellulase (Asp. aculeatus); test: Enzyme inhibition spectrum: carboxymethyl-cellulase (Asp. aculeatus); assay type: biochemical; set-up: key: ++: ID50 ≤ 1.0 μg; +: ID50 ≥ 1.0 μg; -: no inhibition; settings: enzyme 100 μg; pH 5.0, 0.5% CM cellulose; measuring method C
Procedure: as §1, §2, §3, §4

[5] = biological target: T1, β-amylase (sweet potato) (Ipomoea batatas, UniProt P10537); test: Enzyme inhibition spectrum: β-amylase (sweet potato); assay type: biochemical; set-up: key: ++: ID50 ≤ 1.0 μg; +: ID50 ≥ 1.0 μg; -: no inhibition; settings: enzyme 12.5 μg; pH 5.0, 0.5% starch; measuring method C
T1 construct: purchased Sigma; host or cells: sweet potato
T1 sequence (P10537 whole entry): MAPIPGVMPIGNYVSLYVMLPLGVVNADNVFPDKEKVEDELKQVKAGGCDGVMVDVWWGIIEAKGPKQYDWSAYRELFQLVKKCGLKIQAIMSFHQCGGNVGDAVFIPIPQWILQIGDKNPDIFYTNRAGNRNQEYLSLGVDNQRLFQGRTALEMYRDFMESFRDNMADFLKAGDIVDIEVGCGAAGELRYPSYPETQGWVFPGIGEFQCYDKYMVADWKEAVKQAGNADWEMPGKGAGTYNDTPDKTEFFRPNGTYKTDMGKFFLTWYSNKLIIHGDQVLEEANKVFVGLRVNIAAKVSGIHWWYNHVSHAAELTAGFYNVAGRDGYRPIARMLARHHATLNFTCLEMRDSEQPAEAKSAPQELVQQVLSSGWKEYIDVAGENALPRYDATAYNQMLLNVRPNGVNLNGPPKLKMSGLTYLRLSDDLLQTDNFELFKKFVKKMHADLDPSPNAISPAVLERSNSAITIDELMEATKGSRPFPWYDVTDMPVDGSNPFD
Procedure: as §1, §2, §3, §4

[6] = test system: avicelase (Asp. aculeatus); test: Enzyme inhibition spectrum: avicelase (Asp. aculeatus); assay type: biochemical; set-up: key: ++: ID50 ≤ 1.0 μg; +: ID50 ≥ 1.0 μg; -: no inhibition; settings: enzyme 2000 μg; pH 5.0, 0.5% avicel; measuring method C
Procedure: as §1, §2, §3, §4

[7] = test system: Invertase (bovine colonic mucosa); test: Enzyme inhibition spectrum: invertase (bovine colonic mucosa); assay type: biochemical; set-up: key: ++: ID50 ≤ 1.0 μg; +: ID50 ≥ 1.0 μg; -: no inhibition; settings: enzyme 5000 μg; pH 6.0, 0.1% sucrose; measuring method A
Procedure: as §1, §2, §3, §5

[8] = biological target: T2, Taka-amylase A (Aspergillus oryzae, UniProt P0C1B3); test: Enzyme inhibition spectrum: Taka-amylase A, starch substrate; assay type: biochemical; set-up: key: ++: ID50 ≤ 1.0 μg; +: ID50 ≥ 1.0 μg; -: no inhibition; settings: enzyme 0.5 μg; pH 5.5, 0.5% starch; measuring method printed 69
T2 construct: purchased SANKYO Co., Ltd
Procedure: as §1, §2, §3

[9] = test system: exo-β-1,3-glucanase; test: Enzyme inhibition spectrum: exo-β-1,3-glucanase; assay type: biochemical; set-up: key: ++: ID50 ≤ 1.0 μg; +: ID50 ≥ 1.0 μg; -: no inhibition; settings: enzyme 15 μg; pH 6.0, 0.1% laminarin; measuring method B
Procedure: as §1, §2, §3
(B) An amount of glucose produced was determined according to the method shown in D. R. Barras and B. A. Stone, Biochim. Biophys. Acta, 191, 329 (1969).

[10] = biological target: T3, Isoamylase (Pseudomonas amyloderamosa, UniProt P10342); test: Enzyme inhibition spectrum: isoamylase; assay type: biochemical; set-up: key: ++: ID50 ≤ 1.0 μg; +: ID50 ≥ 1.0 μg; -: no inhibition; settings: enzyme 100 μg; pH 5.5, 0.5% starch; measuring method C
T3 construct: purchased Shin Nippon Kagaku Co., Ltd
T3 sequence (P10342 27-776): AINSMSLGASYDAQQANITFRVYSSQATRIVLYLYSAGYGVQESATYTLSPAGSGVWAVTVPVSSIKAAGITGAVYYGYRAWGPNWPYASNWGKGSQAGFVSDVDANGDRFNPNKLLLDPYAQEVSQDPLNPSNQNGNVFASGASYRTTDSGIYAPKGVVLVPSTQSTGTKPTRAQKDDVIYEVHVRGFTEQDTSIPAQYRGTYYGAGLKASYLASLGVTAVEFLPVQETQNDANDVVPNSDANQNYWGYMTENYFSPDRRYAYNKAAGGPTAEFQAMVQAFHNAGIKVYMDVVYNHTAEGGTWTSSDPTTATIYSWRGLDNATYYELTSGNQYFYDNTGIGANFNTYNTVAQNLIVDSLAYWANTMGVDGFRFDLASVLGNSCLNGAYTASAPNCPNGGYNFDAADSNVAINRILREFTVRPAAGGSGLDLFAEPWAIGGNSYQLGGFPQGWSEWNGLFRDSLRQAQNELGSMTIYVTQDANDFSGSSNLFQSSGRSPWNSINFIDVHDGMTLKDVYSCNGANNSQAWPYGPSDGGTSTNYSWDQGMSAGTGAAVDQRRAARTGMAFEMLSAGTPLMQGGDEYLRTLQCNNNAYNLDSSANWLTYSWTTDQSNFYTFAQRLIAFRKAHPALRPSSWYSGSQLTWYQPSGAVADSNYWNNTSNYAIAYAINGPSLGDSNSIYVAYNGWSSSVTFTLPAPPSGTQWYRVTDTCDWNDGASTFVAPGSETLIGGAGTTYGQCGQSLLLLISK
Procedure: as §1, §2, §3, §4

[11] = test system: Trehalase (Chaetomium aureum); test: Enzyme inhibition spectrum: trehalase (Chaetomium aureum); assay type: biochemical; settings: enzyme 15 μg; pH 5.5, 5 mM trehalase; measuring method A
Procedure: as §1, §2, §3, §5

Bacterial saccharifying amylase, sequence (P00691 42-659): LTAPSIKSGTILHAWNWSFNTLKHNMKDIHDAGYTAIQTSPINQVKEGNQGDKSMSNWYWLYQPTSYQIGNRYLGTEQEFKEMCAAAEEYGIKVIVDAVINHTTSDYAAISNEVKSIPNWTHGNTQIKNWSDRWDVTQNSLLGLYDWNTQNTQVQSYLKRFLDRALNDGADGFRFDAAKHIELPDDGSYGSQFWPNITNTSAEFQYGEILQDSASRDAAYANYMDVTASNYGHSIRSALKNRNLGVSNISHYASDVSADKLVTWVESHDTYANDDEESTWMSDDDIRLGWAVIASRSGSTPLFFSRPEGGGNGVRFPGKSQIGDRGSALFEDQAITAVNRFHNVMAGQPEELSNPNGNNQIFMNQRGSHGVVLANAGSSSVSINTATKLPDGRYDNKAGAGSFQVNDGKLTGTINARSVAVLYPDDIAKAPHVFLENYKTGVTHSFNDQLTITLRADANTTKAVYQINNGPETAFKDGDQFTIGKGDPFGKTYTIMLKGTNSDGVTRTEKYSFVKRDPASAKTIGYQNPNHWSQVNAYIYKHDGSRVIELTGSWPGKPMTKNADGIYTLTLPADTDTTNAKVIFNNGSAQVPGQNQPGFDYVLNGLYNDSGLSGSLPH

OC[C@H]1O[C@H](N=C2NC3C(O2)C(O)C(O)C3(O)CO)[C@H](O)[C@@H](O)[C@@H]1O (some centres unmarked) [Trehalostatin]
-: Action (ID50) [2] | Action (ID50) [3] | Action (ID50) [4] | Action (ID50) [5] | Action (ID50) [6] | Action (ID50) [7] | Action (ID50) [8] | Action (ID50) [9] | Action (ID50) [10]
soluble in water: Solubility [1]
+ (ID50 ≥ 1.0 μg): Action (ID50) [11]
